Patent US7186701B2, “Dehydrating agent and method for dehydrating moist article using the agent and dehydrated article obtained by the method” (Kabushiki Kaisha Hayashibara Seibutsu Kagaku Kenkyujo, priority 2001, dated 2007)

Tests used:
[1] = Amino carbonyl reaction with polypeptone; type: physicochemical; conditions: 10% (w/v) with 5% (w/v) polypeptone, 100° C., minus control
Protocol: Four milliliter aliquots of the resulting solution were placed in glass test tubes, sealed, and heated at 100° C. for 30 to 90 min. After allowing to stand for cooling at ambient temperature, each of the resulting solution was measured for coloration degree to examine their amino carbonyl reactivity. In parallel, as a control, a solution with only polypeptone was provided and treated similarly as above. The coloration degree was evaluated based on the level of the absorbance, which had been measured in a cell with 1-cm light pass at a wavelength of 480 nm, minused that of the control.

[2] = tested on: Eubacterium aerofaciens ATCC 25986; assay: Assimilation test; type: cell-based; conditions: 0.5% saccharide in PYF medium, 37° C., four days, anaerobic
Inclusion action = type: physicochemical
Protocol: To 100 g aliquots of the aqueous solution was added 2 g of methanol, 3 g of ethanol, or 4.6 g acetic acid to be included by the cyclotetrasaccharide. Thereafter, each of the resulting solutions was filtered to remove non-inclusion products, and the filtrates were dried in vacuo. As a control, similar inclusion products were prepared by using “ISOELITE™ P”, a branched cyclodextrin commercialized by Maruha K.K., Tokyo, Japan, which were known to have inclusion ability.
To measure the amount of the inclusion products in the resulting lyophilized powders, one gram of each of the powders was dissolved in five milliliters of water and extracted after admixing with five milliliters of diethylether. The extraction was repeated, and the resulting extracts were quantified on gas chromatography.

mice = assay: Acute toxicity test, oral; type: in vivo; conditions: oral administration to mice
Description: Based on this, the LD50 of cyclotetrasaccharide was at least 50 g/kg mouse body weight, though the value was […].

amylopsin = target: T1, amylopsin (Homo sapiens, UniProt P04746)
T1 sequence (P04746 16-511): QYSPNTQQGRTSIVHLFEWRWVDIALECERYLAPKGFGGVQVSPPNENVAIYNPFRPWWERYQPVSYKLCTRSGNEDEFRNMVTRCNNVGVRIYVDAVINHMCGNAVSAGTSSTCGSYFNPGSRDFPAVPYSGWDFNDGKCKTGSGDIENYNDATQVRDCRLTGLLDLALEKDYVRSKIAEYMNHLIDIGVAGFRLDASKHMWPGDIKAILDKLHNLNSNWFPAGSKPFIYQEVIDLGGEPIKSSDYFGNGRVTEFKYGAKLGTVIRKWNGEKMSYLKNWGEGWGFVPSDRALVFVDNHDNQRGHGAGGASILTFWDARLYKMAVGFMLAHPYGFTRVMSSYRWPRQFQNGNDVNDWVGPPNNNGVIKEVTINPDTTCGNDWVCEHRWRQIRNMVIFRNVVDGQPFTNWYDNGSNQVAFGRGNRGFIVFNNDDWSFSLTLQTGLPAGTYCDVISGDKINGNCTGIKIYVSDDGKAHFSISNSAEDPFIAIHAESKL

pH stability = type: physicochemical; conditions: 4% (w/v), 100° C., 24 hours; for Purity (%) after heating: HPLC
Protocol: Eight milliliters of each solution was placed in a glass test tube, followed by sealing and then heating the test tube at 100° C. for 24 hours. After the heating, each solution was cooled and measured for coloration degree and determined for purity on HPLC. The coloration degree was evaluated based on the absorbance in a cell with a 1-cm light pass at a wavelength of 480 nm.

Thermostability = type: physicochemical; conditions: 10% (w/v) aqueous solution, 120° C.; for Purity (%) after heating: HPLC
Protocol: After the heating, the aqueous solutions were cooled under atmospheric conditions and measured for coloration degree and determined for purity on HPLC. The coloration degree of each solution was evaluated based on the absorbance in a cell with a 1-cm light pass at a wavelength of 480 nm.

[3] = tested on: Escherichia coli IFO 3301; assay: Assimilation test; type: cell-based; conditions: 0.5% saccharide in PYF medium, 37° C., four days, anaerobic
[4] = Saturation concentration of cyclotetrasaccharide in water; type: physicochemical
Description: The resulting each saturated solution of cyclotetrasaccharide was membrane filtered to remove undissolved cyclotetrasaccharide, and each filtrate was then examined for moisture content by the drying loss method to determine a saturation concentration of cyclotetrasaccharide at respective temperatures.

[5] = tested on: internal content of rat cecum; assay: Fermentation test; type: in vitro ADME
Protocol: The internal content of rat cecum was collected by anesthetizing a Wister male rat with ether, anatomizing the rat, collecting the internal content under anaerobic conditions, and suspending the resultant with 4-fold volumes of a 0.1 M aqueous solution of sodium bicarbonate. The cyclotetrasaccharide was added to the internal content of rat cecum in an amount of about 7% by weight, and the levels of cyclotetrasaccharide remained just after and 12 hours after the addition of the internal content were quantified on gas chromatography.

[6] = Amino carbonyl reaction with glycine; type: physicochemical; conditions: 10% (w/v) with 1% (w/v) glycine, pH 7.0, 120° C.
Protocol: Four milliliter aliquots of the resulting solution were placed in glass test tubes, sealed, and heated at 120° C. for 30 to 90 min. After allowing to stand for cooling at ambient temperature, each of the resulting solutions was measured for coloration degree to examine their amino carbonyl reactivity. The coloration degree was evaluated based on the absorbance in a cell with 1-cm light pass at a wavelength of 480 nm.

OCC1OC2OCC3O[C@H](O[C@H]4C(O)C(CO)OC(OCC5O[C@H](O[C@@H](C1O)C2O)C(O)C(O)[C@@H]5O)C4O)C(O)C(O)[C@@H]3O (stereo partly drawn) [cyclotetrasaccharide, cyclo{→6)-α-D-glucopyranosyl-(1→3)-α-D-glucopyranosyl-(1→6)-α-D-glucopyranosyl-(1→3)-α-D-glucopyranosyl-(1→}]
Coloration degree (A480 nm) ([1]; heating time 0 min): 0.00 A480 nm | Coloration degree (A480 nm) ([1]; heating time 30 min): 0.00 A480 nm | Coloration degree (A480 nm) ([1]; heating time 60 min): 0.00 A480 nm | Coloration degree (A480 nm) ([1]; heating time 90 min): 0.00 A480 nm | Assimilability [2]: − (judged as negative (−) when the post culture had a pH of 6.0 or higher) | inclusion ability relative to that of the branched cyclodextrin by weight (Inclusion action): about 2 folds | Inclusion amount (mg/g lyophilized powder) (Inclusion action; inclusion product Acetic acid): 67.74 mg/g lyophilized powder | Inclusion amount (mg/g lyophilized powder) (Inclusion action; inclusion product Ethanol): 17.26 mg/g lyophilized powder | Inclusion amount (mg/g lyophilized powder) (Inclusion action; inclusion product Methanol): 6.71 mg/g lyophilized powder | LD50 (mice): at least 50 g/kg mouse body weight | Decomposition percentage (%) by digestive enzyme (amylopsin): 0.0% | Coloration degree (A480 nm) (pH stability; pH 2.0 (Acetate buffer)): 0.00 A480 nm | Purity (%) after heating (pH stability; pH 2.0 (Acetate buffer)): 93% | Coloration degree (A480 nm) (pH stability; pH 3.0 (Acetate buffer)): 0.00 A480 nm | Purity (%) after heating (pH stability; pH 3.0 (Acetate buffer)): 100% | Coloration degree (A480 nm) (pH stability; pH 4.0 (Acetate buffer)): 0.00 A480 nm | Purity (%) after heating (pH stability; pH 4.0 (Acetate buffer)): 100% | Coloration degree (A480 nm) (pH stability; pH 5.0 (Acetate buffer)): 0.00 A480 nm | Purity (%) after heating (pH stability; pH 5.0 (Acetate buffer)): 100% | Coloration degree (A480 nm) (pH stability; pH 6.0 (Tris-HCl buffer)): 0.00 A480 nm | Purity (%) after heating (pH stability; pH 6.0 (Tris-HCl buffer)): 100% | Coloration degree (A480 nm) (pH stability; pH 7.0 (Tris-HCl buffer)): 0.00 A480 nm | Purity (%) after heating (pH stability; pH 7.0 (Tris-HCl buffer)): 100% | Coloration degree (A480 nm) (pH stability; pH 8.0 (Tris-HCl buffer)): 0.00 A480 nm | Purity (%) after heating (pH stability; pH 8.0 (Tris-HCl buffer)): 100% | Coloration degree (A480 nm) (pH stability; pH 9.0 (Ammonium buffer)): 0.00 A480 nm | Purity (%) after heating (pH stability; pH 9.0 (Ammonium buffer)): 100% | Coloration degree (A480 nm) (pH stability; pH 10.0 (Ammonium buffer)): 0.00 A480 nm | Purity (%) after heating (pH stability; pH 10.0 (Ammonium buffer)): 100% | Coloration degree (A480 nm) (Thermostability; heating time 0 min): 0.00 A480 nm | Purity (%) after heating (Thermostability; heating time 0 min): 100% | Coloration degree (A480 nm) (Thermostability; heating time 30 min): 0.00 A480 nm | Purity (%) after heating (Thermostability; heating time 30 min): 100% | Coloration degree (A480 nm) (Thermostability; heating time 60 min): 0.00 A480 nm | Purity (%) after heating (Thermostability; heating time 60 min): 100% | Coloration degree (A480 nm) (Thermostability; heating time 90 min): 0.00 A480 nm | Purity (%) after heating (Thermostability; heating time 90 min): 100% | Assimilability [3]: − (judged as negative (−) when the post culture had a pH of 6.0 or higher) | Saturation concentration (%) ([4]; 10 ° C.): 30.3% | Saturation concentration (%) ([4]; 30 ° C.): 34.2% | Saturation concentration (%) ([4]; 50 ° C.): 42.6% | Saturation concentration (%) ([4]; 70 ° C.): 53.0% | Saturation concentration (%) ([4]; 90 ° C.): 70.5% | cyclotetrasaccharide remained intact ([5]; 12 hours after the addition): 93% | level of cyclotetrasaccharide remained ([5]; 12 hours after the addition): 63.0 mg per one gram of the internal content of rat cecum | level of cyclotetrasaccharide remained ([5]; just after the addition): 68.0 mg per one gram of the internal content of rat cecum | Coloration degree (A480 nm) ([6]; heating time 0 min): 0.00 A480 nm | Coloration degree (A480 nm) ([6]; heating time 30 min): 0.00 A480 nm | Coloration degree (A480 nm) ([6]; heating time 60 min): 0.00 A480 nm | Coloration degree (A480 nm) ([6]; heating time 90 min): 0.00 A480 nm
